Results taken from publication PMC2819980 (Chemistry & biology, 2010).

Tests used:
Format in all cases: biochemical
FrbH = FrbH (Streptomyces rubellomurinus, UniProt Q0ZQ41); experiment: HPLC / LC-MS product analysis; details: 10 mM MgCl2, HEPES pH 7.25, 30 °C
FrbI [1] = target: T1, FrbI (Streptomyces rubellomurinus, UniProt Q0ZQ40); experiment: in vitro hydrolysis
FrbI [2] = target: T1, FrbI; experiment: HPLC / LC-MS product analysis, coupled with FrbH, FrbF and FrbG; details: 10 mM MgCl2, HEPES pH 7.25, 30 °C; substrate formed in situ

FrbH, sequence (Q0ZQ41 whole entry): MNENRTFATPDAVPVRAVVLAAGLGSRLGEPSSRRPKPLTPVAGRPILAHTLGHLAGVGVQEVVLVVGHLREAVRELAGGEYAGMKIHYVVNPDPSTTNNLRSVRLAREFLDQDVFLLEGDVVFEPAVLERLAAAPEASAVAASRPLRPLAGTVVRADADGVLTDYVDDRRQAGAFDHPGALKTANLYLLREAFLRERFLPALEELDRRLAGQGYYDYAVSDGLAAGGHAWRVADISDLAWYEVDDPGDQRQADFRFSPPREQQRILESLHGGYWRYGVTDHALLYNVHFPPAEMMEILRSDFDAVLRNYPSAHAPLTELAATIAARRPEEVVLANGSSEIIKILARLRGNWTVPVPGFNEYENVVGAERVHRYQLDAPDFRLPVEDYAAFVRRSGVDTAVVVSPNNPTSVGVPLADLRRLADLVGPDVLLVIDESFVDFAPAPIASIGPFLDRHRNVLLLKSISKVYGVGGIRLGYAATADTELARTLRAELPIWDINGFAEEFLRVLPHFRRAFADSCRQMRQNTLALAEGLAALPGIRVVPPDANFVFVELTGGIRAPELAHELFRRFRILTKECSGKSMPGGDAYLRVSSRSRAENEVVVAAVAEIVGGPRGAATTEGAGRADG
T1 sequence (Q0ZQ40 whole entry): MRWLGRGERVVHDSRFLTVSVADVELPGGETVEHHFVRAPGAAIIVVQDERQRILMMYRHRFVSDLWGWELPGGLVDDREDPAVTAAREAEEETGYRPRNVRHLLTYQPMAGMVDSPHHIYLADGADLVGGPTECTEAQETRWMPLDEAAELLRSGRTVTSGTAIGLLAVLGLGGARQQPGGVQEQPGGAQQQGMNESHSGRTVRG

NC(CCP(=O)(O)O)C(=O)O (racemic) [VI, 2APn]
HPLC / LC-MS product analysis (FrbH; 1 mM CTP): FrbH condenses 2APn and CTP to form CMP-5'-2APn

Nc1ccn([C@@H]2O[C@H](COP(=O)(O)OP(=O)(O)OP(=O)(O)O)[C@@H](O)[C@H]2O)c(=O)n1 [CTP]
in vitro hydrolysis (FrbI [1]): even showed a small amount of activity toward CTP | HPLC / LC-MS product analysis (FrbH; 2 mM (±)-2APn): FrbH condenses 2APn and CTP to form CMP-5'-2APn

CC(=O)N(O)CCCP(=O)(O)OP(=O)(O)OC[C@H]1O[C@@H](n2ccc(N)nc2=O)[C@H](O)[C@@H]1O [IX, CMP-5'-FR-900098]
HPLC / LC-MS product analysis, coupled with FrbH, FrbF and FrbG (FrbI [2]): FrbI catalyzes the hydrolysis of CMP-5'-FR-900098 to form FR-900098 and CMP
